The values that follow come from the SangsterLogP compilation.

A short description of the data set: method code SF-AS, from Dearden, C.; O'Hara, H. (1978). Partition coefficients of some alkyl derivatives of 4-acetamidophenol. Eur J Med Chem, 13(5)415-419.

For the compound `CC(=O)Nc1c(C)cc(O)c(C)c1C`, the logP (commonly a log measure of how a compound divides between an organic and an aqueous phase) turned out to be 0.75. With `CC(=O)Nc1c(C)c(C)c(O)c(C)c1C` the figure was 0.95; with `CC(=O)Nc1cc(C)c(O)c(C)c1`, 1.11. The figure for `CC(=O)Nc1ccc(O)cc1C` is 0.17. The figure for `CC(=O)Nc1ccc(O)c(C(C)C)c1` is 1.71. In turn, `CC(=O)Nc1cc(C)c(O)c(C)c1C` showed a logP of 0.82. The figure for `CC(=O)Nc1ccc(O)c(C(C)(C)C)c1` is 2.36. With `CCc1cc(NC(C)=O)ccc1O` the figure was 1.31; with `CC(=O)Nc1cc(C)c(O)cc1C`, 0.6. With `CC(=O)Nc1c(C)cc(O)cc1C` the figure was 0.31; with `CC(=O)Nc1ccc(O)c(C)c1`, 0.79. For the compound `CCc1cc(NC(C)=O)cc(CC)c1O`, the logP came to 1.87. The figure for `CC(=O)Nc1ccc(O)c(C)c1C` is 0.57; for `CC(=O)Nc1cc(C(C)(C)C)c(O)c(C(C)(C)C)c1` it is 3.18.
